Data from article PMC7808749, “Morpholine-based chalcones as dual-acting monoamine oxidase-B and acetylcholinesterase inhibitors: synthesis and biochemical investigations” (Journal of Enzyme Inhibition and Medicinal Chemistry, 2021).
Converted amounts (≈) assume the structure as drawn.

Legend:
[1] = PAMPA-BBB reported values; cited from earlier work
[2] = in vitro; details: for Papp: PAMPA; for Prediction (BBB permeation class): class from Pe
Text: The synthesised derivatives were screened for their abilities to cross the BBB using the parallel artificial membrane permeability assay (PAMPA) because this ability is a critical developmental requirement for any drug targeting neurodegenerative disorders or depression.

[3] = biological target: T1, recombinant human MAO-A (Homo sapiens, UniProt P21397); experiment: MAO-A inhibition assay (kynuramine substrate); assay type: biochemical; details: mean ± SE; for remaining activity at 10 µM: read-out: Residual activities (%) MAO-A (10 µM)
T1 sequence (P21397 1-527): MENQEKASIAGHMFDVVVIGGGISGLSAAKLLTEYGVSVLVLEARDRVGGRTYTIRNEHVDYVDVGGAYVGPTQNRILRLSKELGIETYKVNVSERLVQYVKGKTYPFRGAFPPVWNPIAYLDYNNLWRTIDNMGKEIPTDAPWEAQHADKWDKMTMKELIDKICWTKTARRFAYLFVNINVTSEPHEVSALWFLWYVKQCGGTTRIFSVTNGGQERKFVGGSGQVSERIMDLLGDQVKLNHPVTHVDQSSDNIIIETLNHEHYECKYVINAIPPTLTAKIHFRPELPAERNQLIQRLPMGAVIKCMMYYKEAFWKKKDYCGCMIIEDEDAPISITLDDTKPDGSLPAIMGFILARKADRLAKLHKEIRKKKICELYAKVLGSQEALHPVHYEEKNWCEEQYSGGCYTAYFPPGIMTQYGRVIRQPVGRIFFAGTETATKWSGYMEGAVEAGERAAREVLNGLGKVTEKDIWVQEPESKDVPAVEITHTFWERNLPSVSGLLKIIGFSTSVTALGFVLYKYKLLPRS
Experimental: (§1) MAO-A, MAO-B, AChE and BChE activities were measured after exposure to inhibitors at a concentration of 10 µM. […] IC50 values were determined by measuring the residual enzyme activities. […] Ki values and inhibitor types were determined by kinetic testing, as previously described. […] Lineweaver–Burk plots and their secondary plots were used to determine Ki values and inhibitor types.

[4] = biological target: BChE (Equus caballus, UniProt P81908); experiment: biochemical; details: for remaining activity at 10 µM: read-out: Residual activities (%) BChE (10 µM)
Chain of BChE (P81908 whole entry): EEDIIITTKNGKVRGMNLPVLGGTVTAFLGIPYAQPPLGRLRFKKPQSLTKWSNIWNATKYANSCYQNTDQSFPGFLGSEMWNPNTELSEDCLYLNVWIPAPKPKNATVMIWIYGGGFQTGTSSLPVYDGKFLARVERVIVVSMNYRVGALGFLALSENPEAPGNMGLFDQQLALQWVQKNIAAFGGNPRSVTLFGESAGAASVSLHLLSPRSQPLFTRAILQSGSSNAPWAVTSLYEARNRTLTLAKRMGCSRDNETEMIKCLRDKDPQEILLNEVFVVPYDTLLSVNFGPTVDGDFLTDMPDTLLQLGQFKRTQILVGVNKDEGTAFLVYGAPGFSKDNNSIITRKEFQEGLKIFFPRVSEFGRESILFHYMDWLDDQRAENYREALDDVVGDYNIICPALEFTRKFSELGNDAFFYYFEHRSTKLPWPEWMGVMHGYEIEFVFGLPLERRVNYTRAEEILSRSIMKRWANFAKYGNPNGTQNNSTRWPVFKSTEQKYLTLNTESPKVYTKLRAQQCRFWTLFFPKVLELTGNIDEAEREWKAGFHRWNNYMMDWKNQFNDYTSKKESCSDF
Experimental: Colour development was performed using 0.5 mM 5,5′-dithiobis (2-nitrobenzoic acid) (DTNB), which reacts with thiocholine (a product of ATCI by AChE or of BTCI by BChE) to produce 5-thio 2-nitrobenzoic acid.
as §1

[5] = biological target: T2, MAO-B (Homo sapiens, UniProt P27338); experiment: MAO-B inhibition assay (benzylamine substrate); assay type: biochemical; details: for remaining activity at 1 µM: read-out: Residual activities (%) MAO-B (1.0 µM); for SI = IC50 of MAO-A/IC50 of MAO-B: selectivity for MAO-B over MAO-A
T2 sequence (P27338 1-520): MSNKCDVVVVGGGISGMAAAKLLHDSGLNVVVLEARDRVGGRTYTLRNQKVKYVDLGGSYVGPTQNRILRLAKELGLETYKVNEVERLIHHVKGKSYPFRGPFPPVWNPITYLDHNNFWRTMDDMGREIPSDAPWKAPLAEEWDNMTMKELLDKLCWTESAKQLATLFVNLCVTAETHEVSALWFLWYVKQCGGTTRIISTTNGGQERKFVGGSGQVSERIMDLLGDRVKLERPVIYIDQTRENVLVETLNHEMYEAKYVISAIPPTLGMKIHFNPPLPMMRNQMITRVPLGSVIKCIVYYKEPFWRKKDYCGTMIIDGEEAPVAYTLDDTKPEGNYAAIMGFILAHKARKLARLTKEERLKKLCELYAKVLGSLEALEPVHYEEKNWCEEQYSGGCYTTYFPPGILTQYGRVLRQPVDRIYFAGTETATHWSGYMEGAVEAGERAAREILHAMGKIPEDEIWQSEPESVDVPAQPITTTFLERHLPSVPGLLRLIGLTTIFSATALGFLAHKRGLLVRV

[6] = biological target: T3, AChE (Electrophorus electricus, UniProt O42275); experiment: Reversibility of AChE inhibition by dialysis; assay type: biochemical
T3 sequence (O42275 24-633): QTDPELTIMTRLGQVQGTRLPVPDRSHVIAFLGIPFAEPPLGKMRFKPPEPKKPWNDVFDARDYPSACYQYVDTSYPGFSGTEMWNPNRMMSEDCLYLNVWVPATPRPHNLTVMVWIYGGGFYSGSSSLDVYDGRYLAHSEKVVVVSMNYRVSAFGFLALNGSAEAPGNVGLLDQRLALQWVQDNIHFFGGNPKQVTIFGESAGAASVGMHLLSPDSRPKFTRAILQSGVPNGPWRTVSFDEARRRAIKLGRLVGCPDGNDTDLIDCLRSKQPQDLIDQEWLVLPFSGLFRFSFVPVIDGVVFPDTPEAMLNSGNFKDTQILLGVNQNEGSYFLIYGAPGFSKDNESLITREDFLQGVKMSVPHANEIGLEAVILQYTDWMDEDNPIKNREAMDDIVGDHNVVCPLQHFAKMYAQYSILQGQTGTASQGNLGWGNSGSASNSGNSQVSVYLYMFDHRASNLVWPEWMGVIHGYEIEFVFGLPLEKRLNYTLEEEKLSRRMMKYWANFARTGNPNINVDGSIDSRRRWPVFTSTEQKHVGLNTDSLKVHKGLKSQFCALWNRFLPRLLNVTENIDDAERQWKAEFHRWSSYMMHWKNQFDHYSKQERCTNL

[7] = tested on: Hela cells; experiment: Total ROS assay in H2O2-treated cells; assay type: cell-based, human; details: 40 µg/mL compound; 100 μg/mL H2O2; fluorescent image analysis
Text: ROS are considered to be the radicals primarily responsible for the neuronal death observed in various neurodegenerative disorders.
Figure 7.

[8] = biological target: T3, AChE; experiment: Kinetics of AChE inhibition (Lineweaver-Burk and secondary plots); assay type: biochemical
Experimental: as §1

[9] = tested on: normal VERO cells; experiment: MTT cytotoxicity assay; details: MTT assay
[10] = biological target: T3, AChE; experiment: AChE inhibition assay (modified Ellman method, ATCI); assay type: biochemical; details: 15 min pre-incubation, mean ± SE

Row | SMILES | Papp [2] [×10⁻⁶ cm/s] | Prediction (BBB permeation class) ([2]; PAMPA-BBB) | remaining activity at 10 µM ([3]; inhibitor 10 µM) [%] | IC50 [3] [µM] | remaining activity at 10 µM [4] [%] | IC50 [5] [µM] | remaining activity at 1 µM [5] [%] | SI = IC50 of MAO-A/IC50 of MAO-B [5] | further results
1 | CN1C(C(=O)Nc2ccccn2)=C(O)c2ccccc2S1(=O)=O [Piroxicam, reference compound] | 2.35 ± 0.3 | CNS+/- |  |  |  |  |  |  | Bibliography Pe (×10^−6 cm s^−1) [1]: 2.5 ×10^−6 cm s^−1
2 | CCc1ccc(/C=C/C(=O)c2ccc(N3CCOCC3)cc2)cc1 [MO6] |  |  | 12.3 ± 1.58 | 8.7 ± 1.32 | 70.96 ± 0.36 | 0.64 ± 0.04 | 64.1 ± 1.37 | 13.6 | 
3 | CCn1cc(C(=O)O)c(=O)c2cc(F)c(N3CCNC(C)C3)c(F)c21 (stereo not shown) [Lomefloxacin, reference compound] | 1.26 ± 0.01 | CNS- (CNS- (low): Pe (10^−6 cm s^−1) <2.00) |  |  |  |  |  |  | 
4 | COc1ccc(/C=C/C(=O)c2ccc(N3CCOCC3)cc2)cc1 [MO3] |  |  | 91 ± 3.17 | > 40 | 56.8 ± 2.97 | 1.01 ± 0.08 | 79.9 ± 5.28 | >39.6 | 
5 | O=C(/C=C/c1ccc(Cl)cc1)c1ccc(N2CCOCC2)cc1 [MO8] |  |  | 83.7 ± 4.02 | > 40 | 74.61 ± 0.73 | 0.32 ± 0.16 | 34.6 ± 5.44 | >125.0 | 
6 | CN(C)c1ccc(/C=C/C(=O)c2ccc(N3CCOCC3)cc2)cc1 [MO5] | 14.4 ± 0.81 | CNS+ (CNS+ (high): Pe (10^−6 cm s^−1) > 4.00) |  |  |  |  |  |  | Reversibility of AChE inhibition ([6]; dialysis): reversible inhibitors; AChE residual activity, dialysed (AD) ([6]; inhibitor ~2 × IC50, after 6 h dialysis): 79.2%; AChE residual activity, undialyzed (AU) ([6]; inhibitor ~2 × IC50, before dialysis): 35.8%; Residual activities (%) MAO-A (10 µM) ([3]; inhibitor 10 µM): 88.1 ± 3.43%; ROS levels in H2O2-treated Hela cells [7]: significantly lower ROS levels than MO9; Residual activities (%) BChE (10 µM) ([4]; inhibitor 10 µM, mean ± SE): 60.86 ± 1.07%; Type of AChE inhibition [8]: reversibly competitively inhibited; BBB permeation ([2]; PAMPA-BBB): crossed the blood–brain barrier; IC50 in normal VERO cells [9]: 185.44 µg/mL (≈ 551 µM); Toxicity to normal VERO cells [9]: non-toxic; IC50 [10]: 6.1 ± 0.0048 µM; Residual activities (%) AChE (10 µM) ([10]; inhibitor 10 µM): 34.5 ± 9.51%
